Measurements published in article PMC3511402, “Structural and Biochemical Studies on ATP Binding and Hydrolysis by the Escherichia coli RNA Chaperone Hfq” (PLoS ONE, 2012).

How the values were obtained:
full length E. coli Hfq = biological target: T1, full length E. coli Hfq (Escherichia coli, UniProt P0A6X3); assay: EMSA competition with […]'-labelled poly(A)[…] RNA; format: binding; details: 5 nM poly(A)27, 40 nM Hfq hexamer, pH 7.5, 2 mM MgOAc, room temperature; distal site competition
T1 construct: full length, no added His tag (native histidines); plasmid pUH5 in E. coli AM111F' (printed for the ATPase preparations); hexamer

Hfq65 = biological target: T2, Hfq65 (Escherichia coli, UniProt P0A6X3); assay: X-ray crystal structure, […] Å; format: binding; details: distal-face R-sites, four of six sites occupied; ATP 1:1 per subunit; Hepes pH ~7.5
T2 construct: gene hfq; C-terminally truncated, aa 1-65; plasmid pUHfq65 expressed in E. coli hfq- strain AM111F'; untagged; hexamer
T2 sequence (P0A6X3 1-65): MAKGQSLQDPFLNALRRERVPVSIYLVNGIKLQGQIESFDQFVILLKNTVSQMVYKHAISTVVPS

T1 sequence (P0A6X3 2-102): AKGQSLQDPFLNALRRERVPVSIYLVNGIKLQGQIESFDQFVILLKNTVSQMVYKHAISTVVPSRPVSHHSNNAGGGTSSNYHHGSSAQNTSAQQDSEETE

**Q.** For `Nc1ncnc2c1ncn2[C@@H]1O[C@H](COP(=O)(O)OP(=O)(O)OP(=O)(O)O)[C@@H](O)[C@H]1O` [ATP], which “% RNA released at 10 mM ATP” value (full length E. coli Hfq) is on record?
**A.** ~ 50%

**Q.** What about the “X-ray crystal structure, 2.15 Å” value (Hfq65) of the same molecule?
**A.** electron density corresponding to the ATP molecules was observed in four out of six R-sites
